Assay results reported in PubChem BioAssay (NCI).
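96-well plates; 48 h exposure; 5 concentrations. Endpoints by linear interpolation between flanking doses. Not reached: highest tested concentration assigned. TGI: total growth inhibition.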

How the values were obtained:
Test in all cases: NCI-60 cell line screen, 48 h
[1] = system: SW-620 colon
[2] = system: LOX IMVI melanoma
[3] = system: OVCAR-5 ovarian
[4] = system: NCI-H522 lung
[5] = system: OVCAR-3 ovarian
[6] = system: NCI-H23 lung
[7] = system: MDA-MB-435
[8] = system: TK-10 renal
[9] = system: MALME-3M melanoma
[10] = system: SK-OV-3 ovarian
[11] = system: HCT-15 colon
[12] = system: MCF7 breast
[13] = system: M14 melanoma
[14] = system: SN12C renal
[15] = system: SNB-75 CNS
[16] = system: U251 CNS
[17] = system: SK-MEL-5 melanoma
[18] = system: UO-31 renal
[19] = system: SR leukemia
[20] = system: HCT-116 colon
[21] = system: HT29 colon
[22] = system: HOP-62 NSCLC
[23] = system: UACC-257 melanoma
[24] = system: COLO 205 colon
[25] = system: OVCAR-4 ovarian
[26] = system: MDA-N
[27] = system: MDA-MB-231 breast
[28] = system: HCC-2998 colon
[29] = system: NCI-H226 lung
[30] = system: RXF 393 renal
[31] = system: IGROV1 ovarian
[32] = system: OVCAR-8 ovarian
[33] = system: SF-539 CNS
[34] = system: DU-145 prostate
[35] = system: HOP-92 NSCLC
[36] = system: K-562 leukemia
[37] = system: BT-549 breast
[38] = system: T-47D breast
[39] = system: NCI-H460 lung
[40] = system: SF-295 CNS
[41] = system: NCI/ADR-RES ovarian
[42] = system: KM12 colon
[43] = system: A549 NSCLC
[44] = system: SF-268 CNS
[45] = system: 786-0 renal
[46] = system: CAKI-1 renal
[47] = system: CCRF-CEM leukemia
[48] = system: ACHN renal
[49] = system: UACC-62 melanoma
[50] = system: SK-MEL-28 melanoma
[51] = system: HS 578T breast
[52] = system: SNB-19 CNS
[53] = system: RPMI-8226 leukemia
[54] = system: SK-MEL-2 melanoma
[55] = system: EKVX NSCLC
[56] = system: MOLT-4 leukemia
[57] = system: PC-3 prostate
[58] = system: A498 renal
[59] = system: HL-60(TB) leukemia

For CSCSSC, the TGI [1] was > 100 µM, the TGI [2] was > 100 µM and the TGI [3] was > 100 µM. For the same compound, the TGI [4] was > 100 µM, the TGI [5] was > 100 µM and the TGI [6] was > 100 µM. The TGI [7] was > 100 µM, the TGI [8] was > 100 µM and the TGI [9] was > 100 µM. The TGI [10] was > 100 µM, the TGI [11] was > 100 µM and the TGI [12] was > 100 µM. For the same compound, the TGI [13] was > 100 µM, the TGI [14] was > 100 µM and the TGI [15] was > 100 µM. For the same compound, the TGI [16] was > 100 µM, the TGI [17] was > 100 µM and the TGI [18] was > 100 µM. The TGI [19] was > 100 µM, the TGI [20] was > 100 µM and the TGI [21] was > 100 µM. For the same compound, the TGI [22] was > 100 µM, the TGI [23] was > 100 µM and the TGI [24] was > 100 µM. For the same compound, the TGI [25] was > 100 µM, the TGI [26] was > 100 µM and the TGI [27] was > 100 µM. The TGI [28] was > 100 µM, the TGI [29] was > 100 µM and the TGI [30] was > 100 µM. For the same compound, the TGI [31] was > 100 µM, the TGI [32] was > 100 µM and the TGI [33] was > 100 µM. The TGI [34] was > 100 µM, the TGI [35] was > 100 µM and the TGI [36] was > 100 µM. For the same compound, the TGI [37] was > 100 µM, the TGI [38] was > 100 µM and the TGI [39] was > 100 µM. For the same compound, the TGI [40] was > 100 µM, the TGI [41] was > 100 µM and the TGI [42] was > 100 µM. For the same compound, the TGI [43] was > 100 µM, the TGI [44] was > 100 µM and the TGI [45] was > 100 µM. The TGI [46] was > 100 µM, the TGI [47] was > 100 µM and the TGI [48] was > 100 µM. For the same compound, the TGI [49] was > 100 µM, the TGI [50] was > 100 µM and the TGI [51] was > 100 µM. The TGI [52] was > 100 µM, the TGI [53] was > 100 µM and the TGI [54] was > 100 µM. The TGI [55] was > 100 µM, the TGI [56] was 90.3 µM and the TGI [57] was > 100 µM. The TGI [58] was > 100 µM.

In the case of O=C1Nc2ccc(Br)cc2C1=Nc1cccnc1, the TGI [1] is reported as 46.4 µM, the TGI [2] is reported as 34.8 µM and the TGI [3] is reported as > 100 µM. The TGI [4] was 29.5 µM, the TGI [5] was 44.3 µM and the TGI [6] was 45.4 µM. For the same compound, the TGI [7] was 28.9 µM, the TGI [8] was > 100 µM and the TGI [9] was 46.8 µM. For the same compound, the TGI [10] was > 100 µM, the TGI [11] was 59.6 µM and the TGI [12] was 59.3 µM. The TGI [13] was 31.5 µM, the TGI [14] was 37.9 µM and the TGI [15] was > 100 µM. For the same compound, the TGI [16] was 24.8 µM, the TGI [17] was 31.8 µM and the TGI [18] was 29.7 µM. It also gave a TGI [20] of 44.5 µM, a TGI [21] of 51.3 µM and a TGI [59] of 48.8 µM. The TGI [22] was 74.2 µM, the TGI [23] was 55.9 µM and the TGI [24] was > 100 µM. It also gave a TGI [25] of 25.1 µM, a TGI [26] of 34.7 µM and a TGI [27] of 37.6 µM. The TGI [28] was 40 µM, the TGI [29] was > 100 µM and the TGI [30] was 29.1 µM. It also gave a TGI [31] of 60.7 µM, a TGI [32] of 51.7 µM and a TGI [33] of 30 µM. For the same compound, the TGI [34] was > 100 µM, the TGI [35] was > 100 µM and the TGI [36] was 52.7 µM. The TGI [37] was 33.2 µM, the TGI [38] was 52.7 µM and the TGI [39] was > 100 µM. For the same compound, the TGI [40] was > 100 µM, the TGI [41] was 87.1 µM and the TGI [42] was 99.3 µM. The TGI [43] was > 100 µM, the TGI [44] was 71.8 µM and the TGI [45] was 44.7 µM. For the same compound, the TGI [46] was > 100 µM, the TGI [47] was 57.4 µM and the TGI [48] was 39.3 µM. The TGI [49] was 35 µM, the TGI [50] was 42 µM and the TGI [51] was 60.5 µM. For the same compound, the TGI [52] was > 100 µM, the TGI [53] was 60.9 µM and the TGI [54] was 57.2 µM. It also gave a TGI [55] of 65.1 µM, a TGI [56] of 64.5 µM and a TGI [57] of 41.2 µM. The TGI [58] was > 100 µM.

For CCCC(=O)NC(Nc1ccc(S(=O)(=O)Nc2cc(C)on2)cc1)(C(=O)OCC)C(F)(F)F (stereo not drawn), the TGI [1] was > 100 µM, the TGI [2] was > 100 µM and the TGI [3] was > 100 µM. For the same compound, the TGI [4] was > 100 µM, the TGI [5] was > 100 µM and the TGI [6] was > 100 µM. For the same compound, the TGI [7] was > 100 µM, the TGI [8] was > 100 µM and the TGI [9] was > 100 µM. For the same compound, the TGI [10] was > 100 µM, the TGI [11] was > 100 µM and the TGI [12] was > 100 µM. For the same compound, the TGI [13] was > 100 µM, the TGI [14] was > 100 µM and the TGI [15] was > 100 µM. The TGI [16] was > 100 µM, the TGI [17] was > 100 µM and the TGI [18] was > 100 µM. For the same compound, the TGI [19] was > 100 µM, the TGI [20] was > 100 µM and the TGI [21] was > 100 µM. The TGI [59] was > 100 µM, the TGI [22] was > 100 µM and the TGI [23] was > 100 µM. For the same compound, the TGI [24] was > 100 µM, the TGI [25] was > 100 µM and the TGI [26] was > 100 µM. The TGI [27] was > 100 µM, the TGI [28] was > 100 µM and the TGI [29] was > 100 µM. The TGI [30] was > 100 µM, the TGI [31] was > 100 µM and the TGI [32] was > 100 µM. The TGI [33] was > 100 µM, the TGI [34] was > 100 µM and the TGI [35] was > 100 µM. The TGI [36] was > 100 µM, the TGI [37] was > 100 µM and the TGI [38] was > 100 µM. For the same compound, the TGI [40] was > 100 µM, the TGI [41] was > 100 µM and the TGI [42] was > 100 µM. For the same compound, the TGI [43] was > 100 µM, the TGI [44] was > 100 µM and the TGI [45] was > 100 µM. For the same compound, the TGI [46] was > 100 µM, the TGI [47] was > 100 µM and the TGI [48] was > 100 µM. For the same compound, the TGI [49] was > 100 µM, the TGI [50] was > 100 µM and the TGI [51] was > 100 µM. For the same compound, the TGI [52] was > 100 µM, the TGI [53] was > 100 µM and the TGI [54] was > 100 µM. For the same compound, the TGI [55] was > 100 µM, the TGI [56] was > 100 µM and the TGI [57] was > 100 µM.
